Results on 17 compounds are retold here after PubChem BioAssay AID328 (DTP/NCI, 2004).

Several values for one entry are separate records, joined by “and”; a condition that tells them apart may be missing. Equal values may be shown once. Toxic doses and inconclusive results are not listed.

The subject of this assay is BDF1 mice, P388 leukemia ip, median survival T/C. In words: NCI In Vivo Anticancer Drug Screen. Data for tumor model P388 Leukemia (intraperitoneal) in B6D2F1 (BDF1) mice. To be noted: endpoint: median survival time, higher = longer survival. In a few lines: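 Mice carrying the transplantable tumour receive compound or vehicle. Survival is followed in each arm, and the treated measure is divided by the vehicle measure.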

Setting [1] is: dose: 50.0 mg/kg/injection, schedule: Q01DX009 (ip), vehicle: saline with Tween-80.
The mark [2] stands for this setting: dose: 75.0 mg/kg/injection, schedule: Q01DX009 (ip), vehicle: saline with Tween-80.
The mark [3] stands for this setting: dose: 100.0 mg/kg/injection, schedule: Q01DX009 (ip), vehicle: saline with Tween-80.
[4] abbreviates: dose: 200.0 mg/kg/injection, schedule: Q01DX009 (ip), vehicle: saline with Tween-80.
Setting [5] is: dose: 400.0 mg/kg/injection, schedule: Q01DX009 (ip), vehicle: saline with Tween-80.
Where [6] appears, read: dose: 25.0 mg/kg/injection, schedule: Q01DX009 (ip), vehicle: saline with Tween-80.
[7] abbreviates: dose: 12.5 mg/kg/injection, schedule: Q01DX009 (ip), vehicle: Klucel (hydroxypropylcellulose) (HPC).
Where [8] appears, read: dose: 25.0 mg/kg/injection, schedule: Q01DX009 (ip), vehicle: Klucel (hydroxypropylcellulose) (HPC).
Setting [9] is: dose: 50.0 mg/kg/injection, schedule: Q01DX009 (ip), vehicle: Klucel (hydroxypropylcellulose) (HPC).
The mark [10] stands for this setting: dose: 200.0 mg/kg/injection, schedule: Q04DX003 (ip), vehicle: Klucel (hydroxypropylcellulose) (HPC).
The mark [11] stands for this setting: dose: 100.0 mg/kg/injection, schedule: Q04DX003 (ip), vehicle: saline with Tween-80.
The mark [12] stands for this setting: dose: 200.0 mg/kg/injection, schedule: Q04DX003 (ip), vehicle: saline with Tween-80.
Where [13] appears, read: dose: 400.0 mg/kg/injection, schedule: Q04DX003 (ip), vehicle: saline with Tween-80.

For `COc1cc2ccc(CC3NCCc4cc5c(cc43)OCO5)cc2cc1OC` (stereo not drawn), the T/C (dose: 22.0 mg/kg/injection, schedule: Q01DX009 (ip), vehicle: saline with Tween-80) was 105 % of control; the T/C (dose: 33.0 mg/kg/injection, schedule: Q01DX009 (ip), vehicle: saline with Tween-80) is 110 % of control; the T/C (dose: 50.0 mg/kg/injection, schedule: Q01DX009 (ip), vehicle: other) is 100 % of control; the T/C under setting [1] was 115 % of control; the T/C under setting [2] was 110 % of control; the T/C (dose: 100.0 mg/kg/injection, schedule: Q01DX009 (ip), vehicle: other) was 100 % of control. In addition, the T/C was 118 % of control (dose: 100.0 mg/kg/injection, schedule: Q04DX003 (ip), vehicle: other) and 118 % of control (dose: 200.0 mg/kg/injection, schedule: Q04DX003 (ip), vehicle: other).

In the case of `COc1ccc(C(=O)NN2C(N)=NC(N)=NC2(C)C)cc1`, the T/C runs as follows: (dose: 50.0 mg/kg/injection, schedule: Q04DX003 (ip), vehicle: saline sonified) 100 % of control; (dose: 100.0 mg/kg/injection, schedule: Q04DX003 (ip), vehicle: saline sonified) 100 % of control; (dose: 200.0 mg/kg/injection, schedule: Q04DX003 (ip), vehicle: saline sonified) 105 % of control.

As for `CCCCC(C)C(=O)CC(SCC)c1ccccc1` (stereo not drawn), the T/C by setting is: under setting [1], 103 % of control; under setting [3], 114 % of control; under setting [4], 105 % of control.

Take `Nc1ncnc2c1nnn2C1CC(CO)C(O)C1O` (stereo not drawn): the T/C (dose: 67.0 mg/kg/injection, schedule: Q01DX009 (ip), vehicle: saline with Tween-80) is 163 % of control; the T/C under setting [2] is 153 % of control; the T/C under setting [3] is 168 % of control.

On to `CCCCN(CCCC)CCOC(=O)c1ccc([N+](=O)[O-])cc1`, for which the T/C is, setting by setting: (dose: 50.0 mg/kg/injection, schedule: Q01DX001 (ip), vehicle: saline) 100 % of control; (dose: 100.0 mg/kg/injection, schedule: Q01DX001 (ip), vehicle: saline) 100 % of control; (dose: 200.0 mg/kg/injection, schedule: Q01DX001 (ip), vehicle: saline) 100 % of control.

Take `O=S(=O)(F)c1cccc(C[P+](c2ccccc2)(c2ccccc2)c2ccccc2)c1`: the T/C is 118 % of control (dose: 5.5 mg/kg/injection, schedule: Q01DX009 (ip), vehicle: Klucel (hydroxypropylcellulose) (HPC)); 118 % of control and 120 % of control (dose: 70.0 mg/kg/injection, schedule: Q04DX003 (ip), vehicle: Klucel (hydroxypropylcellulose) (HPC)); 118 % of control (dose: 73.0 mg/kg/injection, schedule: Q04DX003 (ip), vehicle: Klucel (hydroxypropylcellulose) (HPC)); 95 % of control (dose: 170.0 mg/kg/injection, schedule: Q04DX003 (ip), vehicle: Klucel (hydroxypropylcellulose) (HPC)); 108 % of control and 120 % of control (dose: 255.0 mg/kg/injection, schedule: Q04DX003 (ip), vehicle: Klucel (hydroxypropylcellulose) (HPC)).

As for `N#CCCN(CCC#N)/N=N\c1nc[nH]c1C(N)=O`, the T/C is, setting by setting: under setting [1], 101 % of control; under setting [3], 105 % of control; under setting [4], 113 % of control; under setting [5], 113 % of control.

With `O=C1NC(=O)C2(CCc3ccccc3C2)N1` (stereo not drawn), the T/C by setting is: under setting [6], 97 % of control; under setting [1], 99 % of control and 107 % of control; under setting [3], 96 % of control and 104 % of control; under setting [4], 96 % of control and 97 % of control; under setting [5], 92 % of control.

Regarding `COc1ccc(NC2=NCCS2)cc1`, the T/C by setting is: under setting [1], 109 % of control; under setting [3], 104 % of control.

With `CCN(CC)CCOc1ccc(C2=C(c3ccccc3)CCc3cc(OC)ccc32)cc1`, the T/C reads like this: (dose: 12.5 mg/kg/injection, schedule: Q01DX009 (ip), vehicle: saline with Tween-80) 90 % of control; under setting [6], 90 % of control; under setting [1], 95 % of control and 118 % of control.

Regarding `CC(=O)[C@H]1CC[C@H]2[C@@H]3C[C@H](F)C4=CC(=O)CC[C@]4(C)[C@@]3(F)[C@@H](O)C[C@]12C`, the T/C (dose: 12.0 mg/kg/injection, schedule: Q01DX009 (ip), vehicle: Klucel (hydroxypropylcellulose) (HPC)) is 122 % of control; the T/C under setting [7] was 115 % of control; the T/C under setting [8] is 100 % of control and 103 % of control; the T/C under setting [9] is 90 % of control and 100 % of control; the T/C (dose: 100.0 mg/kg/injection, schedule: Q04DX003 (ip), vehicle: Klucel (hydroxypropylcellulose) (HPC)) was 95 % of control and 113 % of control; the T/C under setting [10] was 95 % of control and 113 % of control. For the setting “dose: 400.0 mg/kg/injection, schedule: Q04DX003 (ip), vehicle: Klucel (hydroxypropylcellulose) (HPC)”, the T/C is 95 % of control and 104 % of control and 109 % of control.

For the compound `COC(OC)c1[nH]c(=S)[nH]c(=O)c1Cc1cc([N+](=O)[O-])ccc1O`, the T/C runs as follows: (dose: 25.0 mg/kg/injection, schedule: Q04DX003 (ip), vehicle: saline with Tween-80) 104 % of control; (dose: 50.0 mg/kg/injection, schedule: Q04DX003 (ip), vehicle: saline with Tween-80) 108 % of control; under setting [11], 95 % of control; under setting [12], 104 % of control; under setting [13], 90 % of control.

Regarding `O=C(O)C1C=CC(C(=O)O)CC1` (stereo not drawn), the T/C under setting [11] is 95 % of control, the T/C under setting [12] was 93 % of control and the T/C under setting [13] is 93 % of control.

Regarding `CC(O)(/C=C\c1ccccc1)c1ccccc1` (stereo not drawn), the T/C was 105 % of control under setting [3]; 95 % of control under setting [11]; 107 % of control under setting [4]; 104 % of control under setting [12]; 105 % of control under setting [5]; 104 % of control under setting [13].

Consider `C[N+]1(C)N=C([O-])N(c2ccccc2Cl)C1=O`, for which the T/C under setting [11] was 100 % of control, the T/C under setting [12] was 108 % of control and the T/C under setting [13] is 99 % of control.

Turning to `COc1cc2ccc3c(c2cc1OC)CNCC3`, the T/C by setting is: (dose: 50.0 mg/kg/injection, schedule: Q04DX003 (ip), vehicle: saline) 104 % of control; (dose: 100.0 mg/kg/injection, schedule: Q04DX003 (ip), vehicle: saline) 109 % of control; (dose: 200.0 mg/kg/injection, schedule: Q04DX003 (ip), vehicle: saline) 109 % of control.

Regarding `Cc1ncc(-c2ccc([N+](=O)[O-])cc2)o1`, the T/C is 87 % of control under setting [7]; 96 % of control (dose: 12.5 mg/kg/injection, schedule: Q04DX003 (ip), vehicle: Klucel (hydroxypropylcellulose) (HPC)); 91 % of control under setting [8]; 92 % of control (dose: 25.0 mg/kg/injection, schedule: Q04DX003 (ip), vehicle: Klucel (hydroxypropylcellulose) (HPC)); 91 % of control under setting [9]; 103 % of control (dose: 50.0 mg/kg/injection, schedule: Q04DX003 (ip), vehicle: Klucel (hydroxypropylcellulose) (HPC)). In addition, the T/C under setting [10] is 92 % of control.
